{"source": "patent US6706663B2", "about": "“Herbicidal 3-heterocyclic substituted benzisothiazole and benzisoxazole compounds” (Wyeth, priority 2000, dated 2004)", "key": {"GALAP (Galium aparine) [1]": {"system": "GALAP (Galium aparine)", "assay": "Postemergence herbicidal evaluation", "format": "in vivo", "settings": "postemergence", "summary_of_the_method": "(§1)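 Visual 0–9 injury scores versus control plants, covering stand, vigour, malformation, size, chlorosis and general appearance, taken four to five weeks post-spray and averaged over replicate tests. Plants were sprayed at roughly two weeks old and held on greenhouse benches.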"}, "[2]": {"system": "GLXMAW (Soybean, Williams)", "assay": "Preemergence herbicidal evaluation", "format": "in vivo, Glycine max, (L.) Merr. cv Williams", "settings": "rated 4-5 weeks after treatment"}, "[3]": {"system": "GLXMAW (Soybean, Williams)", "assay": "Postemergence herbicidal evaluation", "format": "in vivo, Glycine max, (L.) Merr. cv Williams", "settings": "postemergence", "summary_of_the_method": "as §1"}, "[4]": {"system": "CHEAL (Chenopodium album)", "assay": "Preemergence herbicidal evaluation", "format": "in vivo, L.", "settings": "rated 4-5 weeks after treatment", "summary_of_the_method": "(§2)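 Rating 0–9, visual, vs control; 4–5 wk after spraying seeded cups with compound in aq. acetone; conventional greenhouse care.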"}, "[5]": {"system": "AMBEL (Ambrosia artemisifolia)", "assay": "Preemergence herbicidal evaluation", "format": "in vivo, L.", "settings": "rated 4-5 weeks after treatment", "summary_of_the_method": "as §2"}, "[6]": {"system": "CASOB (Cassia obtusifolia)", "assay": "Preemergence herbicidal evaluation", "format": "in vivo, L.", "settings": "rated 4-5 weeks after treatment", "summary_of_the_method": "as §2"}, "[7]": {"system": "IPOHE (Ipomoea hederacea)", "assay": "Postemergence herbicidal evaluation", "format": "in vivo, (L.) Jacq.", "settings": "postemergence", "summary_of_the_method": "as §1"}, "[8]": {"system": "ECHCG (Echinochloa crus-galli)", "assay": "Postemergence herbicidal evaluation", "format": "in vivo, (L.) Beau", "settings": "postemergence", "summary_of_the_method": "as §1"}, "[9]": {"system": "CHEAL (Chenopodium album)", "assay": "Postemergence herbicidal evaluation", "format": "in vivo, L.", "settings": "postemergence", "summary_of_the_method": "as §1"}, "[10]": {"system": "AMBEL (Ambrosia artemisifolia)", "assay": "Postemergence herbicidal evaluation", "format": "in vivo, L.", "settings": "postemergence", "summary_of_the_method": "as §1"}, "[11]": {"system": "CASOB (Cassia obtusifolia)", "assay": "Postemergence herbicidal evaluation", "format": "in vivo, L.", "settings": "postemergence", "summary_of_the_method": "as §1"}, "[12]": {"system": "ECHORC (Echinochloa oryzoides)", "assay": "Flooded paddy, preemergence weed control", "format": "in vivo, Echinochloa oryzoides (Ard.) Fritsch.", "settings": "rated 3-4 weeks after treatment, 0-9 rating scale", "summary_of_the_method": "(§3)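 Scoring used a 0-9 visual scale relative to control. Before that, seeds or propagules were planted shallowly in silt loam and flooded to 1.5–3 cm, a depth maintained throughout, with greenhouse care during the test.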"}, "ORYSAT (Rice, Tebonnet)": {"system": "ORYSAT (Rice, Tebonnet)", "assay": "Preemergence herbicidal evaluation", "format": "in vivo, Oryza sativa, (L.) Tebonnet", "settings": "rated 4-5 weeks after treatment"}, "[13]": {"system": "IPOHE (Ipomoea hederacea)", "assay": "Preemergence herbicidal evaluation", "format": "in vivo, (L.) Jacq.", "settings": "rated 4-5 weeks after treatment"}, "GALAP (Galium aparine) [14]": {"system": "GALAP (Galium aparine)", "assay": "Preemergence herbicidal evaluation", "format": "in vivo", "settings": "rated 4-5 weeks after treatment", "summary_of_the_method": "as §2"}, "[15]": {"system": "ABUTH (Abutilon theophrasti)", "assay": "Postemergence herbicidal evaluation", "format": "in vivo, Medic.", "settings": "postemergence", "summary_of_the_method": "as §1"}, "ZEAMX (Corn, Field) [16]": {"system": "ZEAMX (Corn, Field)", "assay": "Postemergence herbicidal evaluation", "format": "in vivo, Zea mays, L.", "settings": "postemergence", "summary_of_the_method": "as §1"}, "CYPIR (Cyperus iria)": {"system": "CYPIR (Cyperus iria)", "assay": "Flooded paddy, preemergence weed control", "format": "in vivo", "settings": "rated 3-4 weeks after treatment, 0-9 rating scale", "summary_of_the_method": "as §3"}, "ZEAMX (Corn, Field) [17]": {"system": "ZEAMX (Corn, Field)", "assay": "Preemergence herbicidal evaluation", "format": "in vivo, Zea mays, L.", "settings": "rated 4-5 weeks after treatment"}, "[18]": {"system": "TRZAWR (Wheat, Winter, cv Riband)", "assay": "Preemergence herbicidal evaluation", "format": "in vivo, Triticum aestivum", "settings": "rated 4-5 weeks after treatment", "summary_of_the_method": "as §2"}, "[19]": {"system": "SAGPY (Sagittaria pygmaea)", "assay": "Flooded paddy, preemergence weed control", "format": "in vivo, L.", "settings": "rated 3-4 weeks after treatment, 0-9 rating scale", "summary_of_the_method": "as §3"}}}
{"smiles": "Cn1c(C(F)(F)F)cc(=O)n(-c2ccc3snc(C4OC(=O)C(C)(C)O4)c3c2)c1=O", "note": "(stereo not drawn) [Compound 71, 3-[3-(4,4-dimethyl-5-oxo-1,3-dioxolan-2-yl)-1,2-benzisothiazol-5-yl]-1-methyl-6-(trifluoromethyl)uracil]", "values": [{"measurement": "GALAP herbicidal rating", "setting": "GALAP (Galium aparine) [1]; rate 0.0320 kg/ha", "value": 2.0}, {"measurement": "GALAP herbicidal rating", "setting": "GALAP (Galium aparine) [1]; rate 0.0620 kg/ha", "value": 7.0}, {"measurement": "Preemergence herbicidal rating GLXMAW", "setting": "[2]; Rate 0.0620 kg/ha", "value": 2.5}, {"measurement": "Preemergence herbicidal rating GLXMAW", "setting": "[2]; Rate 0.1250 kg/ha", "value": 4.5}, {"measurement": "Preemergence herbicidal rating GLXMAW", "setting": "[2]; Rate 0.2500 kg/ha", "value": 6.0}, {"measurement": "GLXMAW herbicidal rating", "setting": "[3]; rate 0.0320 kg/ha", "value": 4.5}, {"measurement": "GLXMAW herbicidal rating", "setting": "[3]; rate 0.0620 kg/ha", "value": 4.5}, {"measurement": "Preemergence herbicidal rating CHEAL", "setting": "[4]; Rate 0.0620 kg/ha", "value": 9.0}, {"measurement": "Preemergence herbicidal rating CHEAL", "setting": "[4]; Rate 0.1250 kg/ha", "value": 9.0}, {"measurement": "Preemergence herbicidal rating CHEAL", "setting": "[4]; Rate 0.2500 kg/ha", "value": 9.0}, {"measurement": "Preemergence herbicidal rating AMBEL", "setting": "[5]; Rate 0.0620 kg/ha", "value": 8.0}, {"measurement": "Preemergence herbicidal rating AMBEL", "setting": "[5]; Rate 0.1250 kg/ha", "value": 9.0}, {"measurement": "Preemergence herbicidal rating AMBEL", "setting": "[5]; Rate 0.2500 kg/ha", "value": 9.0}, {"measurement": "Preemergence herbicidal rating CASOB", "setting": "[6]; Rate 0.0620 kg/ha", "value": 3.5}, {"measurement": "Preemergence herbicidal rating CASOB", "setting": "[6]; Rate 0.1250 kg/ha", "value": 6.5}, {"measurement": "Preemergence herbicidal rating CASOB", "setting": "[6]; Rate 0.2500 kg/ha", "value": 7.5}, {"measurement": "IPOHE herbicidal rating", "setting": "[7]; rate 0.0320 kg/ha", "value": 9.0}, {"measurement": "IPOHE herbicidal rating", "setting": "[7]; rate 0.0620 kg/ha", "value": 9.0}, {"measurement": "ECHCG herbicidal rating", "setting": "[8]; rate 0.0320 kg/ha", "value": 1.0}, {"measurement": "ECHCG herbicidal rating", "setting": "[8]; rate 0.0620 kg/ha", "value": 3.0}, {"measurement": "CHEAL herbicidal rating", "setting": "[9]; rate 0.0320 kg/ha", "value": 6.0}, {"measurement": "CHEAL herbicidal rating", "setting": "[9]; rate 0.0620 kg/ha", "value": 9.0}, {"measurement": "AMBEL herbicidal rating", "setting": "[10]; rate 0.0320 kg/ha", "value": 7.0}, {"measurement": "AMBEL herbicidal rating", "setting": "[10]; rate 0.0620 kg/ha", "value": 6.0}, {"measurement": "CASOB herbicidal rating", "setting": "[11]; rate 0.0320 kg/ha", "value": 0.0}, {"measurement": "CASOB herbicidal rating", "setting": "[11]; rate 0.0620 kg/ha", "value": 2.0}, {"measurement": "herbicidal rating, ECHORC", "setting": "[12]; rate 0.0080 kg/ha", "value": 0.0}, {"measurement": "herbicidal rating, ECHORC", "setting": "[12]; rate 0.0320 kg/ha", "value": 0.0}, {"measurement": "herbicidal rating, ECHORC", "setting": "[12]; rate 0.1250 kg/ha", "value": 0.0}, {"measurement": "Preemergence herbicidal rating ORYSAT", "setting": "ORYSAT (Rice, Tebonnet); Rate 0.0620 kg/ha", "value": 5.5}, {"measurement": "Preemergence herbicidal rating ORYSAT", "setting": "ORYSAT (Rice, Tebonnet); Rate 0.1250 kg/ha", "value": 8.0}, {"measurement": "Preemergence herbicidal rating ORYSAT", "setting": "ORYSAT (Rice, Tebonnet); Rate 0.2500 kg/ha", "value": 8.5}, {"measurement": "Preemergence herbicidal rating IPOHE", "setting": "[13]; Rate 0.0620 kg/ha", "value": 7.0}, {"measurement": "Preemergence herbicidal rating IPOHE", "setting": "[13]; Rate 0.1250 kg/ha", "value": 9.0}, {"measurement": "Preemergence herbicidal rating IPOHE", "setting": "[13]; Rate 0.2500 kg/ha", "value": 9.0}, {"measurement": "Preemergence herbicidal rating GALAP", "setting": "GALAP (Galium aparine) [14]; Rate 0.0620 kg/ha", "value": 6.0}, {"measurement": "Preemergence herbicidal rating GALAP", "setting": "GALAP (Galium aparine) [14]; Rate 0.1250 kg/ha", "value": 9.0}, {"measurement": "Preemergence herbicidal rating GALAP", "setting": "GALAP (Galium aparine) [14]; Rate 0.2500 kg/ha", "value": 9.0}, {"measurement": "ABUTH herbicidal rating", "setting": "[15]; rate 0.0320 kg/ha", "value": 9.0}, {"measurement": "ABUTH herbicidal rating", "setting": "[15]; rate 0.0620 kg/ha", "value": 9.0}, {"measurement": "ZEAMX herbicidal rating", "setting": "ZEAMX (Corn, Field) [16]; rate 0.0320 kg/ha", "value": 4.5}, {"measurement": "ZEAMX herbicidal rating", "setting": "ZEAMX (Corn, Field) [16]; rate 0.0620 kg/ha", "value": 5.0}, {"measurement": "herbicidal rating, CYPIR", "setting": "CYPIR (Cyperus iria); rate 0.0080 kg/ha", "value": 0.0}, {"measurement": "herbicidal rating, CYPIR", "setting": "CYPIR (Cyperus iria); rate 0.0320 kg/ha", "value": 0.0}, {"measurement": "herbicidal rating, CYPIR", "setting": "CYPIR (Cyperus iria); rate 0.1250 kg/ha", "value": 0.0}, {"measurement": "Preemergence herbicidal rating ZEAMX", "setting": "ZEAMX (Corn, Field) [17]; Rate 0.0620 kg/ha", "value": 5.5}, {"measurement": "Preemergence herbicidal rating ZEAMX", "setting": "ZEAMX (Corn, Field) [17]; Rate 0.1250 kg/ha", "value": 8.0}, {"measurement": "Preemergence herbicidal rating ZEAMX", "setting": "ZEAMX (Corn, Field) [17]; Rate 0.2500 kg/ha", "value": 8.5}, {"measurement": "Preemergence herbicidal rating TRZAWR", "setting": "[18]; Rate 0.0620 kg/ha", "value": 4.0}, {"measurement": "Preemergence herbicidal rating TRZAWR", "setting": "[18]; Rate 0.1250 kg/ha", "value": 7.0}, {"measurement": "Preemergence herbicidal rating TRZAWR", "setting": "[18]; Rate 0.2500 kg/ha", "value": 8.0}, {"measurement": "herbicidal rating, SAGPY", "setting": "[19]; rate 0.0080 kg/ha", "value": 0.0}, {"measurement": "herbicidal rating, SAGPY", "setting": "[19]; rate 0.0320 kg/ha", "value": 0.0}, {"measurement": "herbicidal rating, SAGPY", "setting": "[19]; rate 0.1250 kg/ha", "value": 0.0}]}
